Data reported in patent US20260347338A1, “PYRIMIDINE/PYRIDINE DERIVATIVES OR SALTS THEREOF AND PHARMACEUTICAL COMPOSITIONS COMPRISING THE SAME” (YUHAN CORPORATION, priority 2023, published 2026).
pIC50: −log10 of the molar value. Where a name gives a salt, the structure may show the parent alone.

molecular target: T1, human recombinant HPK1 (Homo sapiens, UniProt Q92918); assay: Inhibitory activity against human recombinant HPK1 (TR-FRET); type: biochemical; conditions: ULight-p70S6K peptide, ATP at Km, room temperature, 1 hour, 0.32 to 1000 nM compound
T1 construct: purchased BPS Bioscience
T1 sequence (Q92918 whole entry): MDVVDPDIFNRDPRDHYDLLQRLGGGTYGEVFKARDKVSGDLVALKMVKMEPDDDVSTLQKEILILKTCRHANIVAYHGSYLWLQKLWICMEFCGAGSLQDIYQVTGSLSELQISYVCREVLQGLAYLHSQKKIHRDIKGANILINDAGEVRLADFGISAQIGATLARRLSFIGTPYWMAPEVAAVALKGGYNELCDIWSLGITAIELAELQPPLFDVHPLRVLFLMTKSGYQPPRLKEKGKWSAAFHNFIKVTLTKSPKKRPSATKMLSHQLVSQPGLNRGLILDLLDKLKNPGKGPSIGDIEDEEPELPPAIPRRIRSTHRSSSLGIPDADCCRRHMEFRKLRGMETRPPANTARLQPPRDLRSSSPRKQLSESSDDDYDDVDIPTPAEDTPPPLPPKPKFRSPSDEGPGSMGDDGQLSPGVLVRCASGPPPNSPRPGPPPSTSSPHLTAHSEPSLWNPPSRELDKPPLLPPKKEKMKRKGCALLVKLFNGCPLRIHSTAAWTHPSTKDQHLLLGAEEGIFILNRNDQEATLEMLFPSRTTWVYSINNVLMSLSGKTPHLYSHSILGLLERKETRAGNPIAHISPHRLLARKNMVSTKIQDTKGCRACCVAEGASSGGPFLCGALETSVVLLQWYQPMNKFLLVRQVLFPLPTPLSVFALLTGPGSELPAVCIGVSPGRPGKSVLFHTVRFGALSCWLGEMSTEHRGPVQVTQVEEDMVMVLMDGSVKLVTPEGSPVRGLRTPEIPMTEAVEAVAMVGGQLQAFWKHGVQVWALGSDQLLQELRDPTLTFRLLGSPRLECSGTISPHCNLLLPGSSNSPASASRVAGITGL
Procedure, shortened: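 IC50 classes A–D use 10, 50 and 100 nM cut-offs, derived from TR-FRET signal inhibition relative to DMSO controls. Human recombinant HPK1 phosphorylated ULight-p70S6K peptide at Km ATP for 1 h, room temperature, pH 7.4; test range 0.32–1000 nM final, detection with Eu-labelled antibody after EDTA quench.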

| pIC50 | SMILES |
| --- | --- |
| ≥ 8.00 | COc1cccc(F)c1-c1nc(Nc2cc(N3CCC[C@H](N)C3)c(-c3cnn(C4CCOCC4)c3)cn2)ccc1C#N [Example 300, 6-((4-((S)-3-aminopiperidin-1-yl)-5-(1-(tetrahydro-2H-pyran-4-yl)-1H-pyrazol-4-yl)pyridin-2-yl)amino)-2-(2-fluoro-6-methoxyphenyl)nicotinonitrile hydrochloride] |
| ≥ 8.00 | COc1cccc(F)c1-c1nc(Nc2cc(N3CCC[C@H](O)C3)c(-c3cnn(C4CCOCC4)c3)cn2)ccc1F [Example 40, (3S)-1-(2-((5-fluoro-6-(2-fluoro-6-methoxyphenyl)pyridin-2-yl)amino)-5-(1-(tetrahydro-2H-pyran-4-yl)-1H-pyrazol-4-yl)pyridin-4-yl)piperidin-3-ol] |
| ≥ 8.00 | COc1cccc(F)c1-c1nccc(Nc2cc(N3CC[C@H](CO)[C@@H](O)C3)c(-c3cnn(C4CCOCC4)c3)cn2)n1 [Example 95, (3R,4R)-1-(2-((2-(2-fluoro-6-methoxyphenyl)pyrimidin-4-yl)amino)-5-(1-(tetrahydro-2H-pyran-4-yl)-1H-pyrazol-4-yl)pyridin-4-yl)-4-(hydroxymethyl)piperidin-3-ol] |
| ≥ 8.00 | COc1cccc(F)c1-c1nccc(Nc2cc(N3CCC[C@H](N)C3)c(-c3cnn(C4CCOCC4)c3)cn2)n1 [Example 52, (S)-N-(4-(3-aminopiperidin-1-yl)-5-(1-(tetrahydro-2H-pyran-4-yl)-1H-pyrazol-4-yl)pyridin-2-yl)-2-(2-fluoro-6-methoxyphenyl)pyrimidin-4-amine hydrochloride] |
| ≥ 8.00 | COc1cccc(F)c1-c1nccc(Nc2cc(N3CCC(C4(O)CC4)CC3)c(-c3cnn(C4CCOCC4)c3)cn2)n1 [Example 65, 1-(1-(2-((2-(2-fluoro-6-methoxyphenyl)pyrimidin-4-yl)amino)-5-(1-(tetrahydro-2H-pyran-4-yl)-1H-pyrazol-4-yl)pyridin-4-yl)piperidin-4-yl)cyclopropan-1-ol] |
| < 7.00 | COc1cccc(F)c1-c1nccc(Nc2cc(N3CCC(C)(CO)C3)c(-c3cnn(C4CCOCC4)c3)cn2)n1 (stereo not shown) [Example 45, (1-(2-((2-(2-fluoro-6-methoxyphenyl)pyrimidin-4-yl)amino)-5-(1-(tetrahydro-2H-pyran-4-yl)-1H-pyrazol-4-yl)pyridin-4-yl)-3-methylpyrrolidin-3-yl)methanol] |
| ≥ 8.00 | COc1cccc(F)c1-c1nc(Nc2cc(N3CCC[C@H](O)C3)c(-c3cnn(C4CCOCC4)c3)cn2)ccc1N [Example 177, (3S)-1-(2-((5-amino-6-(2-fluoro-6-methoxyphenyl)pyridin-2-yl)amino)-5-(1-(tetrahydro-2H-pyran-4-yl)-1H-pyrazol-4-yl)pyridin-4-yl)piperidin-3-ol] |
| ≥ 8.00 | COc1cccc(F)c1-c1nccc(Nc2cc(N3CC[C@@H](O)[C@H](N)C3)c(-c3cnn(C(F)F)c3)cn2)n1 [Example 209, (3R,4R)-3-amino-1-(5-(1-(difluoromethyl)-1H-pyrazol-4-yl)-2-((2-(2-fluoro-6-methoxyphenyl)pyrimidin-4-yl)amino)pyridin-4-yl)piperidin-4-ol hydrochloride] |

Further lines, the compound ahead of its results:

| SMILES | pIC50 |
| --- | --- |
| COc1cccc(F)c1-c1nc(Nc2cc(N3CCC[C@H](N)C3)c(-c3cnn(C4CCOCC4)c3)cn2)ccc1[N+](=O)[O-] [Example 70, 4-((S)-3-aminopiperidin-1-yl)-N-(6-(2-fluoro-6-methoxyphenyl)-5-nitropyridin-2-yl)-5-(1-(tetrahydro-2H-pyran-4-yl)-1H-pyrazol-4-yl)pyridin-2-amine hydrochloride] | ≥ 8.00 |
| CNC(=O)c1cc(F)c(-c2nccc(Nc3cc(N4CCC[C@H](N)C4)c(-c4cnn(C(F)F)c4)cn3)n2)c(OC)c1 [Example 186, (S)-4-(4-((4-(3-aminopiperidin-1-yl)-5-(1-(difluoromethyl)-1H-pyrazol-4-yl)pyridin-2-yl)amino)pyrimidin-2-yl)-3-fluoro-5-methoxy-N-methylbenzamide hydrochloride] | ≥ 8.00 |
| COc1cccc(F)c1-c1nccc(Nc2cc(N3CCC[C@H](O)C3)c(-c3cnn(C4CC(C)(C)OC(C)(C)C4)c3)cn2)n1 [Example 264, (S)-1-(2-((2-(2-fluoro-6-methoxyphenyl)pyrimidin-4-yl)amino)-5-(1-(2,2,6,6-tetramethyltetrahydro-2H-pyran-4-yl)-1H-pyrazol-4-yl)pyridin-4-yl)piperidin-3-ol] | ≥ 8.00 |
| COC(=O)c1cc(F)c(-c2nccc(Nc3cc(N4CCC[C@H](N)C4)c(-c4cnn(C(F)F)c4)cn3)n2)c(OC)c1 [Example 185, methyl (S)-4-(4-((4-(3-aminopiperidin-1-yl)-5-(1-(difluoromethyl)-1H-pyrazol-4-yl)pyridin-2-yl)amino)pyrimidin-2-yl)-3-fluoro-5-methoxybenzoate hydrochloride] | ≥ 8.00 |
| COCCCn1cc(-c2cnc(Nc3ccnc(-c4c(F)cccc4OC)n3)cc2N2CCC[C@H](N)C2)cn1 [Example 116, (S)-N-(4-(3-aminopiperidin-1-yl)-5-(1-(3-methoxypropyl)-1H-pyrazol-4-yl)pyridin-2-yl)-2-(2-fluoro-6-methoxyphenyl)pyrimidin-4-amine hydrochloride] | ≥ 8.00 |
| CCn1cc(-c2cnc(Nc3ccc(C#N)c(-c4c(F)cccc4OC)n3)cc2N2CCC[C@H](N)C2)cn1 [Example 327, 6-((4-((S)-3-aminopiperidin-1-yl)-5-(1-ethyl-1H-pyrazol-4-yl)pyridin-2-yl)amino)-2-(2-fluoro-6-methoxyphenyl)nicotinonitrile hydrochloride] | ≥ 8.00 |
| COc1cc(C(=O)N2CC(F)(F)C2)cc(F)c1-c1nccc(Nc2cc(N3CCC[C@H](O)C3)c(-c3cnn(C(F)F)c3)cn2)n1 [Example 231, (S)-(3,3-difluoroazetidin-1-yl)(4-(4-((5-(1-(difluoromethyl)-1H-pyrazol-4-yl)-4-(3-hydroxypiperidin-1-yl)pyridin-2-yl)amino)pyrimidin-2-yl)-3-fluoro-5-methoxyphenyl)methanone] | ≥ 8.00 |
| COc1cccc(F)c1-c1nccc(Nc2cc(N3CCC[C@H](O)C3)c(-c3ccc(CN4CCOCC4)nc3)cn2)n1 [Example 32, (S)-1-(6-((2-(2-fluoro-6-methoxyphenyl)pyrimidin-4-yl)amino)-6′-(morpholinomethyl)-[3,3′-bipyridin]-4-yl)piperidin-3-ol] | 7.30 to 8.00 |
| COc1cccc(F)c1-c1nccc(Nc2cc(N3C[C@@H](N)CC[C@H]3C)c(-c3cnn(C(F)F)c3)cn2)n1 [Example 252, N-(4-((2R,5S)-5-amino-2-methylpiperidin-1-yl)-5-(1-(difluoromethyl)-1H-pyrazol-4-yl)pyridin-2-yl)-2-(2-fluoro-6-methoxyphenyl)pyrimidin-4-amine] | ≥ 8.00 |
| COc1cc(C(=O)N2CCC(F)(F)C2)cc(F)c1-c1nccc(Nc2cc(N3CCC[C@H](O)C3)c(-c3cnn(C(F)F)c3)cn2)n1 [Example 234, (S)-(4-(4-((5-(1-(difluoromethyl)-1H-pyrazol-4-yl)-4-(3-hydroxypiperidin-1-yl)pyridin-2-yl)amino)pyrimidin-2-yl)-3-fluoro-5-methoxyphenyl)(3,3-difluoropyrrolidin-1-yl)methanone] | ≥ 8.00 |
| COc1cccc(F)c1-c1nccc(Nc2cc(N3CCC[C@H](O)C3)c(-c3ccc(C(=O)N4CCC(O)CC4)nc3)cn2)n1 [Example 38, (S)-(6′-((2-(2-fluoro-6-methoxyphenyl)pyrimidin-4-yl)amino)-4′-(3-hydroxypiperidin-1-yl)-[3,3′-bipyridin]-6-yl)(4-hydroxypiperidin-1-yl)methanone] | ≥ 8.00 |
| COc1cc(F)cc(F)c1-c1nccc(Nc2cc(N3CC[C@@H](F)[C@H](N)C3)c(-c3cnn(C(C)C)c3)cn2)n1 [Example 339, N-(4-((3R,4R)-3-amino-4-fluoropiperidin-1-yl)-5-(1-isopropyl-1H-pyrazol-4-yl)pyridin-2-yl)-2-(2,4-difluoro-6-methoxyphenyl)pyrimidin-4-amine hydrochloride] | ≥ 8.00 |
| COc1cccc(F)c1-c1nccc(Nc2cc(N3CCC[C@H](N)C3)c(-c3cnn(CCN(C)C)c3)cn2)n1 [Example 246, (S)-N-(4-(3-aminopiperidin-1-yl)-5-(1-(2-(dimethylamino)ethyl)-1H-pyrazol-4-yl)pyridin-2-yl)-2-(2-fluoro-6-methoxyphenyl)pyrimidin-4-amine hydrochloride] | ≥ 8.00 |
| COCCn1cc(-c2cnc(Nc3ccc(C(N)=O)c(-c4c(F)cccc4OC)n3)cc2N2CCC[C@H](O)C2)cn1 [Example 144, 2-(2-fluoro-6-methoxyphenyl)-6-((4-((S)-3-hydroxypiperidin-1-yl)-5-(1-(2-methoxyethyl)-1H-pyrazol-4-yl)pyridin-2-yl)amino)nicotinamide] | ≥ 8.00 |
| COc1cccc(F)c1-c1nc(Nc2cc(N3CCC[C@H](O)C3)c(-c3cnn(CC(F)(F)F)c3)cn2)ccc1C(N)=O [Example 143, 2-(2-fluoro-6-methoxyphenyl)-6-((4-((S)-3-hydroxypiperidin-1-yl)-5-(1-(2,2,2-trifluoroethyl)-1H-pyrazol-4-yl)pyridin-2-yl)amino)nicotinamide] | ≥ 8.00 |
| COc1cccc(F)c1-c1nccc(Nc2cc(N3CCC[C@H](O)C3)c(-c3ccc4nccn4c3)cn2)n1 [Example 61, (S)-1-(2-((2-(2-fluoro-6-methoxyphenyl)pyrimidin-4-yl)amino)-5-(imidazo[1,2-a]pyridin-6-yl)pyridin-4-yl)piperidin-3-ol] | 7.30 to 8.00 |
| COc1cc(F)cc(F)c1-c1nccc(Nc2cc(N3CCC[C@H](N)C3)c(-c3cnn(C(F)(F)F)c3)cn2)n1 [Example 157, (S)-N-(4-(3-aminopiperidin-1-yl)-5-(1-(trifluoromethyl)-1H-pyrazol-4-yl)pyridin-2-yl)-2-(2,4-difluoro-6-methoxyphenyl)pyrimidin-4-amine hydrochloride] | ≥ 8.00 |
